Data on one compound can be found in ChEMBL document CHEMBL5537151, “Design, synthesis and bioactivity evaluation of novel fusion peptides and their CPT conjugates inducing effective anti-tumor responses on HER2 positive tumors” (Eur J Med Chem, 2024).

Peptide text beside a SMILES is read from it. * marks the point of attachment. X1 = CCC1(C(=O)OCCS*)C(=O)OCc2c1cc1n(c2=O)Cc2cc3ccccc3nc2-1

In data set [1] the test system is SK-BR-3. Put plainly: cells. As to conditions: Homo sapiens, SK-BR-3, 48 h.
Description: Cytotoxicity against HER-positive human SK-BR-3 cells incubated for 48 hrs by CCK-8 assay
The nature of data set [2]: Toxicity in nude mouse xenografted with human SK-BR-3 cells assessed as change in creatinine level at 8 umol/kg, iv administered every 3 days for 14 days. Type of data set: organism-based. As to conditions: in vivo, 336 h, dose 8 µmol/kg, time 14 day.
Data set [3] in a line: Drug release in human SK-BR-3 cells assessed as cathepsin-mediated camptothecin release by measuring increase in blue fluorescence at 10 uM incubated for 6 hrs by FITC/Lysotracker red dye based laser confocal microscopic analysis. In kind it is ADME, cell-based. As to conditions: sk-br-3, 6 h.
A further data set relates to SK-OV-3. In words: cells. As to conditions: Homo sapiens, SK-OV-3, 48 h.
In data set [4] the test system is SK-BR-3. In words: Induction of apoptosis in human SK-BR-3 cells assessed as live cells at 1 uM incubated for 24 hrs by Annexin V-FITC/PI staining based flow cytometry analysis (reference value: 94.6%). In kind it is functional. For orientation: Flow cytometry measures light scatter and fluorescence of single cells or particles in a stream.
Data set [5] is described as follows: Drug release in human SK-BR-3 cells assessed as cathepsin-mediated SMAC polypeptide release at 10 uM incubated for 6 hrs by FITC/Lysotracker red dye based laser confocal microscopic analysis. In kind it is ADME, cell-based. As to conditions: sk-br-3, 6 h.
Data set [6] in a line: Toxicity in nude mouse xenografted with human SK-BR-3 cells assessed as inflammatory cell infiltration in liver at 8 umol/kg, iv administered every 3 days for 14 days by H and E staining based analysis. In kind it is organism-based. As to conditions: in vivo, 336 h, dose 8 µmol/kg, time 14 day. On the technique in general: In xenograft studies the graft and the host belong to different species.

Data set [7] concerns SK-BR-3. In words: Induction of apoptosis in human SK-BR-3 cells assessed as early apoptotic cells at 1 uM incubated for 24 hrs by Annexin V-FITC/PI staining based flow cytometry analysis (reference value: 2.80%). In kind it is functional.
The nature of data set [8]: Cytotoxicity against HER-negative human MCF-10A cells incubated for 48 hrs by CCK-8 assay. Type of data set: toxicity, cell-based.
Data set [9] in a line: Toxicity in nude mouse xenografted with human SK-BR-3 cells assessed as change in total protein level at 8 umol/kg, iv administered every 3 days for 14 days. Type of data set: organism-based. As to conditions: in vivo, 336 h, dose 8 µmol/kg, time 14 day.
The nature of data set [10]: Toxicity in nude mouse xenografted with human SK-BR-3 cells assessed as increase in AST level at 8 umol/kg, iv administered every 3 days for 14 days. Type of data set: organism-based. As to conditions: in vivo, 336 h, dose 8 µmol/kg, time 14 day.
Data set [11] can be described thus: Toxicity in nude mouse xenografted with human SK-BR-3 cells assessed as inflammatory cell infiltration in lung at 8 umol/kg, iv administered every 3 days for 14 days by H and E staining based analysis. As to conditions: in vivo, 336 h, dose 8 µmol/kg, time 14 day. In kind it is organism-based.

Description for SK-OV-3: Cytotoxicity against HER-positive human SK-OV-3 cells incubated for 48 hrs by CCK-8 assay

A word on the IC50: it is the concentration at which inhibition is half-maximal. Low readings indicate greater potency in that assay, high ones weaker potency in that assay. Take `CC[C@H](C)[C@H](NC(=O)[C@@H]1CCCN1C(=O)[C@@H](NC(=O)[C@H](C)N)C(C)C)C(=O)N[C@@H](C)C(=O)N[C@@H](CCC(N)=O)C(=O)N[C@@H](CCCCN)C(=O)N[C@@H](CSSCCOC(=O)C1(CC)C(=O)OCc2c1cc1n(c2=O)Cc2cc3ccccc3nc2-1)C(=O)NCC(=O)N[C@@H](Cc1ccccc1)C(=O)N[C@@H](CC(C)C)C(=O)NCC(=O)N[C@@H](CC(N)=O)C(=O)N1CCC[C@H]1C(=O)N[C@@H](CC(N)=O)C(=O)N[C@@H](Cc1c[nH]c2ccccc12)C(=O)NCC(=O)N[C@@H](CCCNC(=N)N)C(=O)N[C@@H](CO)C(=O)N[C@@H](Cc1c[nH]c2ccccc12)C(=O)N[C@@H](Cc1ccc(O)cc1)C(=O)N[C@@H](CC(N)=O)C(=O)N[C@@H](CCC(N)=O)C(=O)N[C@@H](CCCNC(=N)N)C(=O)N[C@@H](Cc1ccccc1)C(=O)N[C@@H](CCCCN)C(N)=O` (some centres not stated) (H-AVPIAQKC(X1)GFLGNPNWGRSWYNQRFK-NH2): the IC50 in the data set on SK-BR-3 [1] is 530 nM; in the data set on SK-OV-3 it was 2500 nM. Also, the Activity entry was “Non-Toxic” in data set [2]; 61.1% with SK-BR-3 [4]; “Non-Toxic” in data set [6]; 26% with SK-BR-3 [7]; “Non-Toxic” in data set [9]; “Toxic” in data set [10]. The Activity result in data set [11] is “Non-Toxic”. The Drug metabolism entry in data set [3] and in data set [5] was “Metabolite_Detected” throughout. The compound also gave an IC50 at 48 h in [8] of 17800 nM.
